The target of data set [1] is T1, full-length and truncated AR (AR-3) (Homo sapiens, UniProt P10275).
T1 sequence (P10275 1-920): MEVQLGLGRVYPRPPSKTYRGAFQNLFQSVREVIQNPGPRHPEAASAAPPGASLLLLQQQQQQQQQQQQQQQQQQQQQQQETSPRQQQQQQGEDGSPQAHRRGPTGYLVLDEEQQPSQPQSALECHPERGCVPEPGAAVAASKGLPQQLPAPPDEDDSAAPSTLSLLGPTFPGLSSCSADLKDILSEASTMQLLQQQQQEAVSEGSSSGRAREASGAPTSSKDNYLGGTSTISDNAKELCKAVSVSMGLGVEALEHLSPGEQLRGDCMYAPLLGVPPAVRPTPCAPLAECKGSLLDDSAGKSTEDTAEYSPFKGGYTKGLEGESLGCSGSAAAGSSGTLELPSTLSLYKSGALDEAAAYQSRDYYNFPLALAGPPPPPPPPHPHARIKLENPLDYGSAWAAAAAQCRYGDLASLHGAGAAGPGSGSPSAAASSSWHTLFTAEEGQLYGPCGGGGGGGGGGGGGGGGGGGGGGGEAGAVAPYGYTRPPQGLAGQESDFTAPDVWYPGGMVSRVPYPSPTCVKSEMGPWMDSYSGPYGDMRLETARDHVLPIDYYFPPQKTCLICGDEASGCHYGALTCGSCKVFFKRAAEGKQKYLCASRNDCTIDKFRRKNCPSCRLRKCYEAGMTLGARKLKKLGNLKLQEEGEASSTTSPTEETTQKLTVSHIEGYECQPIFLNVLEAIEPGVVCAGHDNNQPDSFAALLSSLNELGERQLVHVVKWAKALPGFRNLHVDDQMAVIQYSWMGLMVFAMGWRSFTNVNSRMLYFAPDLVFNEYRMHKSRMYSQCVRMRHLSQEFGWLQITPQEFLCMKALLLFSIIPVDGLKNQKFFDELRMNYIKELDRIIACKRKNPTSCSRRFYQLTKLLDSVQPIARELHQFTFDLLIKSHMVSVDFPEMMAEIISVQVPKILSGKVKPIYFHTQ
Briefly: Western blot analysis of fAR and tAR-3 expression in CWR22Rv1 cells. The conditions noted are these: 15 μM, 24 h.

In data set [2] the test system is DHT mediated AR transcription in LNCaP cells. The data set is described as follows: Transcriptional activation luciferase assay. The class given is cell-based, human. The conditions noted are these: 10 μM compound, 10 nM DHT, 24 h.
The nature of data set [3]: Solubility in ethanol or DMSO. The class given is physicochemical. The conditions noted are these: prevented biological testing.
The target in data set [4] is T2, AR (Homo sapiens, UniProt P10275, T878A).
T2 sequence (P10275 1-920 T878A): T1 sequence (P10275 1-920) with T878A
The class given is cell-based. The conditions noted are these: LNCaP cells, 15 μM, 24 h, Western blot. (A western blot detects proteins with antibodies after separation by electrophoresis.)

The test system of the next data set is LNCaP cells. Briefly: Cell growth inhibition. The class given is cell-based, human.
Data set [5] concerns the target T2, AR. The data set is described as follows: Immunocytochemical analysis of AR expression in LNCaP cells. The settings on record: 5 μM, 48 h.

Changes are numbered by the printed parent chain. Values joined by “and” are separate entries in the source; they are usually repeats but may differ in a detail not shown here. Identical values can stand only once. “Also recorded” adds a separate entry of the source.

As to `C[C@]12CCC(=NO)C=C1CC[C@@H]1[C@@H]2CC[C@]2(C)C(n3cnc4ccccc43)=CC[C@@H]12` (mixture of isomers) [Compound 36, 3-((EZ)-Hydroximino)-17-(1H-Benzimidazol-1-yl)-androsta-4,16-diene], the “effect on full-length and truncated AR (AR-3) expression” value (“effect on full-length and truncated AR” for short) in data set [1] was “could degrade both full-length and truncated AR; also recorded: significant down-regulation of both full-length and truncated AR”. In addition, the “inhibition of DHT mediated transcription” value in data set [2] is listed as 65–100%.

Take `C[C@]12CC/C(=N\Oc3ccccc3)C=C1CC[C@@H]1[C@@H]2CC[C@]2(C)C(n3cnc4ccccc43)=CC[C@@H]12` (mixture of isomers) [Compound 37, 3-((EZ)-O-Phenyloxime)-17-(1H-Benzimidazol-1-yl)-androsta-4,16-diene]: in data set [3], the “solubility in ethanol or DMSO” value was “limited solubility in ethanol or DMSO”.

With `CO/N=C1/C=C2CC[C@@H]3[C@H](CC[C@]4(C)C(n5cnc6ccccc65)=CC[C@@H]34)[C@@]2(C)CC1` (mixture of isomers) [Compound 38, 3-((EZ)-O-Methyloxime)-17-(1H-Benzimidazol-1-yl)-androsta-4,16-diene], the “inhibition of DHT mediated transcription” value in data set [2] was 65–100%.

For the compound `C[C@]12CC/C(=N\OCc3ccccc3)C=C1CC[C@@H]1[C@@H]2CC[C@]2(C)C(n3cnc4ccccc43)=CC[C@@H]12` (mixture of isomers) [Compound 39, 3-((EZ)-(O-Phenylmethyl)oxime)-17-(1H-Benzimidazol-1-yl)-androsta-4,16-diene], the “inhibition of DHT mediated transcription” value in data set [2] was 65–100%.

As usually defined, the GI50 is the concentration that inhibits growth by half. In the case of `C[C@]12CC[C@H](O)CC1=CC[C@@H]1[C@@H]2CC[C@]2(C)C(n3cnc4cc(C#N)ccc43)=CC[C@@H]12` [Compound 18, 3β-Hydroxy-17-(5(6)-nitrile-1H-benzimidazol-1-yl)-androsta-5,16-diene], the “effect on AR protein expression (AR degradation / ARD activity)” value (“effect … (AR degradation / ARD activity)” below) at AR [4] is listed as “diminished AR down-regulation (ARD) activity”. Moreover, the GI50 in the data set with LNCaP cells (read-out: GI50, C-17 modified compounds, MTT, 7 days, at least three independent experiments, SEM < 10%) worked out at 2.81 µM.

Take `COc1ccc2ncn(C3=CC[C@H]4[C@@H]5CC=C6C[C@@H](O)CC[C@]6(C)[C@H]5CC[C@]34C)c2c1` [Compound 19, 3β-Hydroxy-17-(6-methoxy-1H-benzimidazol-1-yl)-androsta-5,16-diene]: the “effect … (AR degradation / ARD activity)” value at AR [4] is given as “no modulation of ARDA”.

As for `CC(C)CCNCC1=C(n2cnc3ccccc32)[C@@]2(C)CC[C@H]3[C@@H](CC=C4C[C@@H](O)CC[C@@]43C)[C@@H]2C1` [Compound 25, 3β-Hydoxy-17-(1H-benzimidazol-1-yl)-16-((isopentylamino)methyl)-androsta-5,16-diene], at AR [4], the “effect … (AR degradation / ARD activity)” value is on record as “significant loss of ARD”. Moreover, the “inhibition of DHT mediated transcription” value in data set [2] was 65–100%.

Regarding `C[C@]12CC[C@H](O)CC1=CC[C@@H]1[C@@H]2CC[C@]2(C)C(n3cnc4ccccc43)=C(CNc3ccccc3)C[C@@H]12` [Compound 28, 3β-Hydoxy-17-(1H-benzimidazol-1-yl)-16-((phenylamino)methyl)-androsta-5,16-diene], the “effect … (AR degradation / ARD activity)” value at AR [4] is given as “significant loss of ARD”. Besides, the “inhibition of DHT mediated transcription” value in data set [2] was 65–100%.

For the compound `COc1ccc(NCC2=C(n3cnc4ccccc43)[C@@]3(C)CC[C@H]4[C@@H](CC=C5C[C@@H](O)CC[C@@]54C)[C@@H]3C2)cc1OC` [Compound 31, 3β-Hydoxy-17-(1H-benzimidazol-1-yl)-16-(((3,4-dimethoxyphenyl)amino)methyl)-androsta-5,16-diene], the “effect on full-length and truncated AR” value in data set [1] was “significant down-regulation of both full-length and truncated AR”. On AR [4], the “effect … (AR degradation / ARD activity)” value was “significant loss of ARD”.

Regarding `C[C@]12CC[C@H](OS(C)(=O)=O)CC1=CC[C@@H]1[C@@H]2CC[C@]2(C)C(n3cnc4ccccc43)=CC[C@@H]12` [Compound 34, 3β-Mesyloxy-17-(1H-benzimidazol-1-yl)-androsta-5,16-dien], in data set [2], the “inhibition of DHT mediated transcription” value was 65–100%.

As for `C[C@]12CC[C@H](OC(=O)c3ccccn3)CC1=CC[C@@H]1[C@@H]2CC[C@]2(C)C(n3cnc4ccccc43)=CC[C@@H]12` [Compound 41, 3β-(Pyridine-2-carboxylate)-17-(1H-benzimidazol-1-yl)-androsta-5,16-diene], in data set [3], the “solubility in ethanol or DMSO” value is reported as “limited solubilities in ethanol or DMSO”.

`C[C@]12CC[C@H](OC(=O)c3cccnc3)CC1=CC[C@@H]1[C@@H]2CC[C@]2(C)C(n3cnc4ccccc43)=CC[C@@H]12` [Compound 42, 3β-(Pyridine-3-carboxylate)-17-(1H-benzimidazol-1-yl)-androsta-5,16-diene]: in data set [3], the “solubility in ethanol or DMSO” value is “limited solubilities in ethanol or DMSO”.

`C[C@]12CC[C@H](OC(=O)c3ccncc3)CC1=CC[C@@H]1[C@@H]2CC[C@]2(C)C(n3cnc4ccccc43)=CC[C@@H]12` [Compound 43, 3β-(Pyridine-4-carboxylate)-17-(1H-benzimidazol-1-yl)-androsta-5,16-diene]: the “effect on full-length and truncated AR” value in data set [1] was “could degrade both full-length and truncated AR”.

In the case of `C[C@]12CC[C@H](OC(=O)n3ccnc3)CC1=CC[C@@H]1[C@@H]2CC[C@]2(C)C(n3cnc4ccccc43)=CC[C@@H]12` [Compound 47, 3β-(1H-Imidazole-1-carboxylate)-17-(1H-benzimidazol-1-yl)-androsta-5,16-diene], in data set [1], the “effect on full-length and truncated AR” value is “could degrade both full-length and truncated AR; also recorded: significant down-regulation of both full-length and truncated AR”. The “effect … (AR degradation / ARD activity)” value at AR [4] is on record as “most potent”. The “fold more potent than compound 5, anti-proliferative activity” value in the data set on LNCaP cells (from GI50) was 4 fold and ~ 4 fold. Besides, on AR [5], the “AR levels in the nucleus” value is “significant decrease in AR levels in the nucleus”. In addition, the “inhibition of DHT mediated transcription” value in data set [2] was 65–100%.

For `Cc1nccn1C(=O)O[C@H]1CC[C@@]2(C)C(=CC[C@@H]3[C@@H]2CC[C@]2(C)C(n4cnc5ccccc54)=CC[C@@H]32)C1` [Compound 48, 3β-(2-Methyl-1H-imidazole-1-carboxylate)-17-(1H-benzimidazol-1-yl)-androsta-5,16-diene], in the data set with LNCaP cells (from GI50), the “fold decrease in anti-proliferative activity relative to 47” value came out at 6 fold.

On to `C[C@]12CC[C@H](OC(=O)n3cncn3)CC1=CC[C@@H]1[C@@H]2CC[C@]2(C)C(n3cnc4ccccc43)=CC[C@@H]12` [Compound 49, 3β-(1H-1,2,4-Triazole-1-carboxylate)-17-(1H-benzimidazol-1-yl)-androsta-5,16-diene], for which the “effect … (AR degradation / ARD activity)” value on AR [4] is reported as “significant up-regulation of AR”.

The values are drawn from PMC3959744 (Journal of medicinal chemistry, 2013).
